Measurements: patent US12358859B2, “Series of compounds for treatment of skin diseases and other conditions” (Unigen, Inc., priority 2018, dated 2025)

System: reconstructed skin (keratinocytes and melanocytes)
Test: Reconstructed human skin model (Melanoderm)
Type: cell-based
Conditions: for toxicity on reconstructed skin: at 0.05%; for whitening effects on melanocytes: topical, photographs after 14 days; for significant whitening of melanocytes observed as early as: after the beginning of the experiment (data not shown); for alterations of cell morphology / whitening effects on skin melanocytes: applied topically for 15 days
Experimental: The skin whitening effects of test compounds were studied using a reconstructed skin model, Melanoderm™ provided by MatTek Corp. (Ashland, Mass.) according to the manufacturer's specifications. Briefly, normal human epidermal keratinocytes and normal human melanocytes derived from dark skin donors were co-cultured on a surface of collagen-coated membrane to form multi-layered, highly differentiated skin tissue (MEL-300-B). The tissues were maintained in the CO2, incubator at 37° C. The apical surfaces of the reconstructed skin (9 mm in diameter) were exposed to air whereas the bottom surfaces remained in contact with 5 mL of maintenance medium, containing skin differentiating factors (EPI-100-NNM-113). Test compounds were formulated in 80% propylene glycol as follows: 10 mg of each test compound was dissolved in DMSO and diluted with 80% propylene glycol (1,2-propanediol, Sigma-Aldrich) to stock concentrations. The compounds were then sterilized by passing through 0.2 um filter and diluted in sterile water/propylene glycol to final test concentrations in 0.5% DMSO, 80% propylene glycol. In addition, the following controls were used: 80% propylene glycol with 0.5% DMSO, and 1% kojic acid in 80% propylene glycol.
‘Test compounds were applied to the apical surface of the tissues as follows: 25 μl of each test compound, 25 μl of 80% propylene glycol (vehicle control), and 25 μl of 1% kojic acid (positive control). The samples were reapplied every other day for 14 days. All the samples were tested in duplicate. At the end of the experiment microscopic images were taken.
The potential skin-whitening properties of test compounds were explored in a reconstructed skin model. The model consists of normal, human-derived epidermal keratinocytes and melanocytes, which have been co-cultured to form a multilayered, highly differentiated human epidermis. In this study the melanocytes were obtained from a highly pigmented donor.
Different concentrations of test compounds, 80% propylene glycol (the vehicle control), or 1% kojic acid (positive control) were repeatedly applied topically on the surface of the reconstructed skin for 15 days. […] Photographs of skin specimen taken after 15 days of the experiment show significant dose-dependent whitening effects on melanocytes, which appear on photographs as dark dendritic cells.

Row | SMILES | toxicity on reconstructed skin | whitening effects on melanocytes | significant whitening of melanocytes observed as early as [days] | alterations of cell morphology | whitening effects on skin melanocytes
1 | CC(C)=CCCC(C)/C=C/c1cc(O)cc(O)c1 (centres unmarked) [Compound 7, (E)-5-(3,7-dimethylocta-1,6-dienyl) benzene-1,3-diol] | some toxicity | significant whitening effects |  |  | 
2 | CC(C)=CCCC(C)/C=C/c1ccc(O)cc1O (centres unmarked) [Compound 6, (E)-4-(3,7-dimethylocta-1,6-dienyl) benzene-1,3-diol] |  | significant whitening effects | 3 | without causing any detectable alterations | significant whitening effects
3 | CC(C)=CCC/C(C)=C/c1cc(O)cc(O)c1 [Compound 4, (E/Z)-5-(2,6-dimethylhepta-1,5-dienyl)benzene-1,3-diol] | some toxicity | significant whitening effects |  |  | 
4 | CC(C)=CCCC(C)=Cc1ccc(O)cc1 (mixture of isomers) [Compound 1, (E/Z)-4-(2,6-dimethylhepta-1,5-dienyl)phenol] |  | significant whitening effects | 3 | without causing any detectable alterations | significant whitening effects
5 | CC(C)=CCCC(C)C/C=C\c1cc(O)cc(O)c1 (centres unmarked) [Compound 15, (Z)-5-(4,8-dimethylnona-1,7-dienyl) benzene-1,3-diol] | some toxicity | significant whitening effects |  |  | 
